# Source: ChEMBL document CHEMBL5137025, “Tuberculosis Drug Discovery: Challenges and New Horizons” (J Med Chem, 2022)
# Columns and labels:
# HepG2 = experiment: Cytotoxicity against human HepG2 cells; format: functional
# [1] = Half life in mouse; format: ADME, organism-based; details: in vivo
# [2] = system: Mycobacterium tuberculosis; format: functional, H37Rv; details: dose 100 mg/kg
# [3] = system: Mycobacterium tuberculosis; format: functional; details: H37Rv
# [4] = molecular target: Voltage-gated inwardly rectifying potassium channel KCNH2 (Homo sapiens, UniProt Q12809); experiment: Inhibition of hERG by Qpatch assay; format: toxicity
# Sequence of Voltage-gated inwardly rectifying potassium channel KCNH2 (Q12809 whole entry): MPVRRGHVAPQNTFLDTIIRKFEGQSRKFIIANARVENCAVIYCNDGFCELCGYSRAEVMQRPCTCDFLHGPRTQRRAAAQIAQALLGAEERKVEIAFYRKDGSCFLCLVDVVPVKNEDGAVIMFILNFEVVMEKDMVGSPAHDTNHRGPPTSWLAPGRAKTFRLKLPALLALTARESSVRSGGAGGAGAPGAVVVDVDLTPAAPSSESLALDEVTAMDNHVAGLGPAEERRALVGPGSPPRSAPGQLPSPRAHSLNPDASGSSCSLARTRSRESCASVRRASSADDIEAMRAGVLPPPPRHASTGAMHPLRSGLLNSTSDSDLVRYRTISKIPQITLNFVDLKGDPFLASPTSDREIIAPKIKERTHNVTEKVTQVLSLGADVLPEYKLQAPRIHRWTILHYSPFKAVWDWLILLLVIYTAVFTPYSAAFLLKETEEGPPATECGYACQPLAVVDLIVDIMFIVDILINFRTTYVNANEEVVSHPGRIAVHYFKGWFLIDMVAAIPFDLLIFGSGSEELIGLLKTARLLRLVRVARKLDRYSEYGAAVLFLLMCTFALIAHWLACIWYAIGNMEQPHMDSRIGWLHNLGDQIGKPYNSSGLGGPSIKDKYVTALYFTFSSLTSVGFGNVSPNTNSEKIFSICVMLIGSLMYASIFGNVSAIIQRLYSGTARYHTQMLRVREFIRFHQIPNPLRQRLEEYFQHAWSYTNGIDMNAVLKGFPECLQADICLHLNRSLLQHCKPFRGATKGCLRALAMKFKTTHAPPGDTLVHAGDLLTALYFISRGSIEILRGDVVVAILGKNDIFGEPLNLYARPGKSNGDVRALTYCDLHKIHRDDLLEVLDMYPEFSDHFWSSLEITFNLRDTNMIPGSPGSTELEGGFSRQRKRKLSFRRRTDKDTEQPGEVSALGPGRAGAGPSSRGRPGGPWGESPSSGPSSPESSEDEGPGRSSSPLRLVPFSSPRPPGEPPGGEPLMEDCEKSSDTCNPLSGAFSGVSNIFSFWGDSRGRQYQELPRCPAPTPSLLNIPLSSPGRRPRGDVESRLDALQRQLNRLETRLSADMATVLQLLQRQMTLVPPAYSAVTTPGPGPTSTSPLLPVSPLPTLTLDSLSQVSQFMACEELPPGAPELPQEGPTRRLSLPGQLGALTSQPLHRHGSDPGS
# [5] = system: Mycobacterium tuberculosis; format: functional, H37Rv; details: dose 300 mg/kg; time 8 day
# [6] = Aqueous solubility of compound in PBS at pH 7.4 incubated for 1 hr; format: physicochemical
# [7] = Inhibition of bacterial InhA expressed in Escherichia coli BL21 (DE3) incubated for 1 hr by […]; parameters: species or system Bacteria
# [8] = Oral bioavailability in mouse; format: ADME, organism-based; details: in vivo
# [9] = system: Mycobacterium tuberculosis; format: functional; details: dose 100 mg/kg; route po; time 4 weeks
# [10] = system: Mycobacterium tuberculosis; format: functional; details: dose 50 mg/kg; route po; time 4 weeks
# [11] = Oral bioavailability in Swiss Webster mouse at 10 mg/kg measured for 0.25 to 24 hrs by LC-MS/MS analysis; format: ADME, organism-based; details: in vivo, time 0.25-24 hrs
# [12] = system: Mycobacterium tuberculosis; experiment: microbe, parasite or virus in culture; details: H37Rv
# Description: Antibacterial activity against Mycobacterium tuberculosis H37Rv assessed as inhibition of bacterial growth
# [13] = system: Mycobacterium tuberculosis; experiment: Antibacterial activity against Mycobacterium tuberculosis in acute Mtb infection BALB/c mouse model assessed as reduction in log10 CFU in lungs at 100 mg/kg for 3 weeks; format: functional
# [14] = system: Mycobacterium tuberculosis; format: functional, H37Rv; details: dose 25 mg/kg; route po; time 4 weeks
# [15] = system: Mycobacterium tuberculosis; format: functional, H37Rv; details: dose 50 mg/kg/day; route po; time <= 28 day
# [16] = Solubility of the compound; format: physicochemical
# [17] = system: Mycobacterium tuberculosis; format: functional, H37Rv
# [18] = system: Mycobacterium tuberculosis; experiment: Antibacterial activity against Mycobacterium tuberculosis in chronic Mtb infection mouse model assessed as reduction in log10 CFU at 100 mg/kg bid; format: functional
# [19] = system: Mycobacterium tuberculosis; experiment: Bactericidal activity against Mycobacterium tuberculosis in macrophages; format: functional, Macrophage
# [20] = system: Mycobacterium tuberculosis; format: functional; details: H37Rv; remark: listed apart in the source
# [21] = system: Mycobacterium tuberculosis; experiment: Antibacterial activity against Mycobacterium tuberculosis Erdman in acute Mtb infection BALB/c mouse model assessed as reduction in log10 CFU in lungs at 50 mg/kg, po via gavage for 8 weeks; format: functional
# [22] = system: Mycobacterium tuberculosis; format: functional; details: H37Rv, 336 h, time 14 day
# [23] = system: Mycobacterium tuberculosis; experiment: Antibacterial activity against Mycobacterium tuberculosis in acute Mtb infection mouse model assessed as reduction in log10 CFU at 200 mg/kg for 3 weeks; format: functional
# [24] = system: Mycobacterium tuberculosis; format: functional; details: H37Rv, time 6 day
# [25] = system: Mycobacterium tuberculosis; format: functional; details: H37Rv, 168 h, time 7 day
# [26] = system: Mycobacterium tuberculosis; experiment: Bactericidal activity against Mycobacterium tuberculosis H37Rv in chronic Mtb infection BALB/c mouse model assessed as log10 CFU kill at 20 mg/kg, po qd via gavage measured after 4 weeks; format: functional
smiles,measurement,setting,value
Cc1csc([C@](C)(O)c2nnc(Nc3ccn(Cc4csc(C)n4)n3)s2)n1,CC50,HepG2,> 50 µM
same,half-life,[1],56 min
same,Activity,[2],3 log10CFU
same,MIC90,[3],0.2 µM
same,IC50,[4],> 50 µM
same,Activity,[5],3 log10CFU
same,solubility at 1 h,[6],413 µM
same,IC50,[7],0.007 µM
same,bioavailability,[8],92%
C[C@@H]1[C@H]2C[C@@H](C[C@H]1NC(=O)c1cc3c(F)cc(F)cc3[nH]1)C2(C)C,Activity,[9],3.6 log10CFU
same,Activity,[10],4.7 log10CFU
same,bioavailability,[11],96%
CCOC(=O)NC(=O)c1ccsc1NC(=O)c1nc2ccccc2s1,MIC90,[12],0.23 µM
same,Activity,[13],2.9 log10CFU
CCOC(=O)c1c(-c2ccccc2)oc2ccc(O)c(CN3CCC(C)CC3)c12,MIC90,[12],2.5 µM
O=c1nc(N2CCN(CC3CCCCC3)CC2)sc2c([N+](=O)[O-])cc(C(F)(F)F)cc12 [MACOZINONE],Activity,[14],1 log10CFU
same,Activity,[15],1.1 log10CFU
N=C(N)NC(=O)c1nc(-c2cc3ccccc3o2)c(N)nc1N,MIC,[12],4 µM
CCc1cc(C(N)=S)ccn1 [ETHIONAMIDE],MIC,[12],12 µM
COc1ncc(-c2ccc(Cl)cc2)cc1[C@@H](c1ccccc1)[C@@](O)(CCN(C)C)c1cccc2ccccc12,MIC90,[12],0.13 µM
CC1(C)CCC(NC(=O)c2cc3c(Cl)cc(Cl)cc3[nH]2)CC1,Activity,[9],3.1 log10CFU
same,MIC90,[12],0.02 µM
FC(F)(F)Oc1ccc(Oc2ccc(CN3CCC4(CC3)OCCc3sccc34)cc2)cc1,CC50,HepG2,36 µM
same,solubility,[16],6 µM
same,MIC90,[12],0.06 µM
same,bioavailability,[8],55%
COc1nc2ccc(Br)cc2cc1[C@@H](c1ccccc1)[C@@](O)(CCN(C)C)c1cccc2ccccc12 [BEDAQUILINE],Ratio,[17],6
same,MIC90,[12],0.022 µM
CCNC(=O)Nc1nc2cc(-c3cnc(C(C)(C)OP(=O)(O)O)nc3)c(F)c([C@H]3CCCO3)c2[nH]1,Activity,[18],2.5 log10CFU
Cc1cccc(OC2CCN(Cc3cc(=O)[nH]c(=O)[nH]3)CC2)c1C [GSK-2556286],Activity,[19],<0.1 µM
FC(F)(F)c1ccc(Oc2ccc(Nc3ncnc4ccccc34)cc2)cc1,MIC50,[12],25 µM
CCc1nc2ccc(Cl)cn2c1C(=O)NCc1ccc(N2CCC(c3ccc(OC(F)(F)F)cc3)CC2)cc1 [TELACEBEC],MIC50,[20],0.0027 µM
same,Activity,[21],0.6 log10CFU
same,MIC90,[12],0.011 µM
O=c1c(NCc2ccccn2)c(-c2ccc(C(F)(F)F)cc2)c1=O,MIC80,[12],6.2 µM
N[C@@H]1CONC1=O [CYCLOSERINE],MIC,[12],157 µM
O=C(C1CCN(c2nnc(-n3cccc3)s2)CC1)N1CCC(Cc2ccccc2)CC1,MIC90,[12],4 µM
O=C(Nc1ccc(N2CCN(c3ccccn3)CC2)c(F)c1)c1ccc2no[n+]([O-])c2c1,MIC90,[22],0.09 µM
C[C@@H](O)[C@H]1C(=O)N2C(C(=O)O)=C([C@H]3CCCO3)S[C@H]12 [FAROPENEM],Activity,[23],2.4 log10CFU
same,MIC90,[12],1.8 µM
Cc1cc(Nc2ncc(Cl)c(Nc3ccccc3S(=O)(=O)C(C)C)n2)c(OC(C)C)cc1C1CCNCC1 [CERITINIB],MIC90,[12],9 µM
CNc1nc(SC)nc2ccccc12,MIC,[24],0.13 µM
COc1ncccc1Nc1cc2nc3ccccc3n(-c3ccc(OC(F)(F)F)cc3)c-2c/c1=N\C1CCC(OC)CC1 (centres undefined),MIC90,[25],< 0.008 µM
same,Activity,[26],1.7 log10CFU
